In patent publication US9273075B2, “Prodrugs of 1,4-benzodiazepinone compounds” (BRISTOL-MYERS SQUIBB COMPANY, priority 2012, dated 2016):

Tests used:
[1] = tested on: Pat-21/Abx R TN breast cancer (abx R); assay: Human tumor xenograft in mice: Pat-21/Abx R; assay type: in vivo; details: Pat-21/Abx R xenograft; PO, QDx15, 10 day-on-2 day-off, 5-10 mg/kg/adm
[2] = High Throughput Metabolic Stability Panel, mouse liver microsomes; details: 0.5 μM compound, mouse liver microsomes, ten-minute incubation, NADPH
[3] = tested on: BT-474 HER2+ breast cancer; assay: Human tumor xenograft in mice: BT-474; assay type: in vivo; details: BT-474 xenograft; PO, QDx15, 10 day-on-2 day-off, 5-10 mg/kg/adm
Pat-50 ovarian cancer = assay: Human tumor xenograft in mice: Pat-50; assay type: in vivo; details: Pat-50 xenograft; PO, QDx15, 10 day-on-2 day-off, 5-10 mg/kg/adm
[4] = tested on: MDA-MB157 TN breast cancer; assay: Human tumor xenograft in mice: MDA-MB157; assay type: in vivo; details: PO, QDx15, 10 day-on-2 day-off, 5-10 mg/kg/adm
[5] = tested on: U-87 glioblastoma multiforme (GBM); assay: Human tumor xenograft in mice: U-87; assay type: in vivo; details: U-87 xenograft; PO, QDx15, 10 day-on-2 day-off, 5-10 mg/kg/adm
[6] = tested on: TALL1 Human T-cell acute lymphoblastic leukemia; assay: Human tumor xenograft in mice: TALL1; assay type: in vivo
Pat-26 pancreatic cancer = assay: Human tumor xenograft in mice: Pat-26; assay type: in vivo; details: Pat-26 xenograft; PO, QDx15, 10 day-on-2 day-off, 5-10 mg/kg/adm
[7] = tested on: MDA-MB468 TN breast cancer; assay: Human tumor xenograft in mice: MDA-MB468; assay type: in vivo; details: PO, QDx15, 10 day-on-2 day-off, 5-10 mg/kg/adm
HCT116 colon cancer = assay: Human tumor xenograft in mice: HCT116; assay type: in vivo; details: PO, QDx15, 10 day-on-2 day-off, 5-10 mg/kg/adm
TALL-1 leukemia = assay: Cell proliferation, TALL-1 leukemia; assay type: cell-based; details: Homo sapiens; TALL-1 leukemia cells
Protocol: (§1) In in vitro studies, all agents were dissolved in 100% DMSO and serially diluted in media/10% fetal bovine serum. For administration of Notch inhibitors to rodents, two different excipients were used: [1] 94% Labrafil/5% ETOH/1% TW80 or [2] ETOH/TPGS/PEG300 (10:10:80). Notch inhibitors were typically administered orally on a schedule of QD×15, 10 day-on-2 day-off, although other schedules had also been evaluated and shown to be efficacious.

SK-N-AS neuroblastoma = assay: Human tumor xenograft in mice: SK-N-AS; assay type: in vivo; details: PO, QDx15, 10 day-on-2 day-off, 5-10 mg/kg/adm
[8] = tested on: Calu-6 Non small cell lung cancer; assay: Human tumor xenograft in mice: Calu-6; assay type: in vivo; details: Calu-6 xenograft; PO, QDx15, 10 day-on-2 day-off, 5-10 mg/kg/adm
[9] = tested on: MCF7 estrogen-dependent breast cancer; assay: Human tumor xenograft in mice: MCF7; assay type: in vivo; details: PO, QDx15, 10 day-on-2 day-off, 5-10 mg/kg/adm
Pat-34 ovarian cancer = assay: Human tumor xenograft in mice: Pat-34; assay type: in vivo; details: Pat-34 xenograft; PO, QDx15, 10 day-on-2 day-off, 5-10 mg/kg/adm
Pat-24 pancreatic cancer = assay: Human tumor xenograft in mice: Pat-24; assay type: in vivo; details: Pat-24 xenograft; PO, QDx15, 10 day-on-2 day-off, 5-10 mg/kg/adm
MDA-MB-468 breast cancer = assay: Cell proliferation, MDA-MB-468 breast cancer; assay type: cell-based; details: Homo sapiens; MDA-MB-468 breast cancer cells
Protocol: as §1

G292 osteogenic sarcoma = assay: Human tumor xenograft in mice: G292; assay type: in vivo; details: PO, QDx15, 10 day-on-2 day-off, 5-10 mg/kg/adm
[10] = 0.5 μM compound, human liver microsomes, ten-minute incubation, NADPH
Protocol: The metabolic stability assay evaluated CYP-mediated metabolic stability in vitro using human, rat, mouse, dog, and/or monkey microsomes after a ten-minute incubation. Each compound was tested in duplicate.
Test compound was received as a 3.5 mM stock solution in 100 percent DMSO. […] Each compound was tested in duplicate separately in each of three species in the Metabolic Stability-Human, Rat, and Mouse assay suite or as individual species in the Metabolic Stability-Dog or Metabolic Stability-Monkey suites. Compound, NADPH, and liver microsome solutions were combined for incubation in three steps:
The reaction was initiated by the addition of 17 μl of pre-warmed 10 mM NADPH solution in 100 mM NaPi, pH 7.4.
The reaction components were mixed well, and 75 μl of the reaction mixture was immediately transferred into 150 μl quench/stop solution (zero-time point, T0). Reactions were incubated at 37° C. for 10 minutes and then an additional 75 μl aliquot was transferred into 150 μl quench solution. Acetonitrile containing 100 μM DMN (a UV standard for injection quality control), was used as the quench solution to terminate metabolic reactions.
Quenched mixtures were centrifuged at 1500 rpm (˜500×g) in an ALLEGRA® X-12 centrifuge, SX4750 rotor (Beckman Coulter Inc., Fullerton, Calif.) for fifteen minutes to pellet denatured microsomes. A volume of 90 μl of supernatant extract, containing the mixture of parent compound and its metabolites, was then transferred to a separate 96-well plate for UV-LC/MS-MS analysis to determine the percent of parent compound that remained in the mixture.
Peak integration was performed with the XCALIBUR® software. The percent remaining calculation was performed by comparing the LC-MS/MS peak areas from the T10minute samples to those from the T0minute samples for each compound.
A set of three compounds was tested along with the test compound in each assay plate.

[11] = tested on: MCF7i estrogen-independent breast cancer; assay: Human tumor xenograft in mice: MCF7i; assay type: in vivo; details: PO, QDx15, 10 day-on-2 day-off, 5-10 mg/kg/adm

For CN1C(=O)[C@@H](NC(=O)[C@H](CCC(F)(F)F)[C@H](CCC(F)(F)F)C(N)=O)N=C(c2ccccc2)c2ccccc21 [Compound A, (2R,3S)—N-((3S)-1-Methyl-2-oxo-5-phenyl-2,3-dihydro-1H-1,4-benzodiazepin-3-yl)-2,3-bis(3,3,3-trifluoropropyl)succinamide], the “Antitumor Activity (% TGI)” value [1] was 73 % TGI, the “0.5 μM MsLM (% Remaining)” value [2] was 91% and the “Antitumor Activity (% TGI)” value [3] was 96 % TGI. The “Antitumor Activity (% TGI)” value (Pat-50 ovarian cancer) was 91 % TGI, the “Antitumor Activity (% TGI)” value [4] was 81 % TGI and the “Antitumor Activity (% TGI)” value [5] was 82 % TGI. For the same compound, the “in vivo efficacy against TALL1, activity as defined by the tumor growth inhibition (TGI)” value ([6]; FIG. 1, dosed intravenously QD×3, weekly×3, Compound A 3 mg/kg, Example 12 1.5, 3, 6 mg/kg, active = TGI≧50%) was “active”, the “Antitumor Activity (% TGI)” value ([6]; TALL1 xenograft, PO, QDx15, 10 day-on-2 day-off, 5-10 mg/kg/adm) was 112 % TGI and the “Antitumor Activity (% TGI)” value (Pat-26 pancreatic cancer) was 93 % TGI. The “Antitumor Activity (% TGI)” value [7] was 91 % TGI, the “Antitumor Activity (% TGI)” value (HCT116 colon cancer) was 75 % TGI and the IC50 (TALL-1 leukemia) was 3.9 nM. For the same compound, the “Antitumor Activity (% TGI)” value (SK-N-AS neuroblastoma) was 67 % TGI, the “Antitumor Activity (% TGI)” value [8] was 81 % TGI and the “Antitumor Activity (% TGI)” value [9] was 73 % TGI. For the same compound, the “Antitumor Activity (% TGI)” value (Pat-34 ovarian cancer) was 89 % TGI, the “Antitumor Activity (% TGI)” value (Pat-24 pancreatic cancer) was 111 % TGI and the IC50 (MDA-MB-468 breast cancer) was 3.8 nM. For the same compound, the “Antitumor Activity (% TGI)” value (G292 osteogenic sarcoma) was 75 % TGI, the “0.5 μM HLM (% Remaining)” value [10] was 97% and the “Antitumor Activity (% TGI)” value [11] was 63 % TGI.
